# Active and inactive are the calls of the source.
# Legend:
# [1] = biological target: T1, RNA-binding protein pos-1 (Caenorhabditis elegans, UniProt G5EF15); assay: disruptors of C. elegans POS-1 RNA interaction – biochemical, fluorescence polarization, dose response (AID 1964);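 note: purified POS-1 fused to maltose binding protein made in E. coli; potency of compounds blocking POS-1 binding to fluorescent RNA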
# T1 sequence (G5EF15 whole entry): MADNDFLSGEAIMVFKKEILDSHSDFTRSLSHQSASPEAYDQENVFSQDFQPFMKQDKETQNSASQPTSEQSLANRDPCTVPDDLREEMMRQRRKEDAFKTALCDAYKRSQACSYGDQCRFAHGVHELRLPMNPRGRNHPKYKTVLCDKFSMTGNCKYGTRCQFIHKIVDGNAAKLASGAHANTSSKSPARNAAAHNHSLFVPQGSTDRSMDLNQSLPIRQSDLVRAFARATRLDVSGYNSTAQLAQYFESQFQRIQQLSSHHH
# [2] = biological target: T2, Zinc finger protein mex-5 (Caenorhabditis elegans, UniProt Q9XUB2); assay: potency of MEX-5 RNA-binding blockers – biochemical, C. elegans, fluorescence polarization, dose response (AID 1960)
# T2 sequence (Q9XUB2 whole entry): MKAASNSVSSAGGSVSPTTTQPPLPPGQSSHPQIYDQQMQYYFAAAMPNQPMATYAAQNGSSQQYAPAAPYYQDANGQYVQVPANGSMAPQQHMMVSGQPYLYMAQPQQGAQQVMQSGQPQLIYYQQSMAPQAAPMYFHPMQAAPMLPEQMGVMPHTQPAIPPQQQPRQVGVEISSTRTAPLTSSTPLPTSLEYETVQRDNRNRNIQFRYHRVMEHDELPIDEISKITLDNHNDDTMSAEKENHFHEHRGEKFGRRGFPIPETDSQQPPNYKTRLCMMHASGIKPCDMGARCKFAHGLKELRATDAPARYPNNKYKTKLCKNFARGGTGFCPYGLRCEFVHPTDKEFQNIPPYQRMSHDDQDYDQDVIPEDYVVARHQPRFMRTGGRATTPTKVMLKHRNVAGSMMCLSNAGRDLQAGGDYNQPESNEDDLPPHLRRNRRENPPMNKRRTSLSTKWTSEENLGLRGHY
# Cytochrome P450 2C9 = Cytochrome P450 2C9 (Homo sapiens, UniProt P11712)
# [3] = Luminescence Cell-Based Dose Retest to Confirm Inhibitors of Cancer Stem Cells. [Related pubchem assays (depositor defined):AID2717, AID2721]; type: functional; details: Homo sapiens
# Streptococcus = assay: GAS UMAA2166 growth inhibition – luminescence, BacTiterGlo, counter-screen for streptokinase expression inhibitor project, dose response (AID 1915); type: functional, organism-based;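 note: potency for reduction of bacterial viability or growth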
# INS1 = assay: INS-1E survival protection against cytokine death – cell-based, luminescence, retest, dose response (AID 449756); type: functional; details: Rattus norvegicus;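 note: cell death triggered by IL-1 beta plus TNF-alpha plus IFN-gamma mixture; protective hits raise ATP signal compared with cytokine alone wells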
# [4] = test system: Streptococcus sp. 'group A'; assay: Streptococcus pyogenes SK(-)GAS viability under kanamycin – luminescence, BacTiterGlo, confirmation, counter-screen for streptokinase expression inhibitor project, dose response (AID 1900); type: functional, organism-based
# Streptokinase A = biological target: T3, Streptokinase A (Streptococcus pyogenes serotype M1, UniProt P10520); assay: viability-normalized secreted streptokinase activity reduction – plasminogen activation absorbance, OD405, dose response (AID 1914); type: functional, Streptococcus pyogenes M1 GAS;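 note: secreted streptokinase activity via plasminogen activation per viability signal from cell pellet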
# T3 sequence (P10520 whole entry): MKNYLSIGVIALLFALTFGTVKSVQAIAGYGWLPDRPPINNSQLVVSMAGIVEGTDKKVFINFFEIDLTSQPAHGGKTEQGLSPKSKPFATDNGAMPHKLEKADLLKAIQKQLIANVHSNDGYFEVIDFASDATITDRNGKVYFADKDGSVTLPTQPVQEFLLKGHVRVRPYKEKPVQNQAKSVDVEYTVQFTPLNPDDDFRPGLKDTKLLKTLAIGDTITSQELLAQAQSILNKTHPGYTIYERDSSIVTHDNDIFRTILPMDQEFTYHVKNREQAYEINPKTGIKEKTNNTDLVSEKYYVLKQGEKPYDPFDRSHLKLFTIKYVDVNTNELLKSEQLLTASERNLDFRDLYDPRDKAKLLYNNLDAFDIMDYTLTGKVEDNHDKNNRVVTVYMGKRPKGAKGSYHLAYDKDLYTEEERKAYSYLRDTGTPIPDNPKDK
# [5] = biological target: T4, Heat shock factor protein 1 (Mus musculus, UniProt P38532); assay: decrease of HSF1-responsive luciferase luminescence – cell-based, NIH3T3, dose retest, confirmation (AID 2382); type: functional;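 note: NIH3T3 fibroblasts with HSF1-driven luciferase reporter stressed by proteasome inhibitor MG132; luminescence from HSF1-driven luciferase expression after 8 hours of MG132 stress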
# T4 sequence (P38532 whole entry): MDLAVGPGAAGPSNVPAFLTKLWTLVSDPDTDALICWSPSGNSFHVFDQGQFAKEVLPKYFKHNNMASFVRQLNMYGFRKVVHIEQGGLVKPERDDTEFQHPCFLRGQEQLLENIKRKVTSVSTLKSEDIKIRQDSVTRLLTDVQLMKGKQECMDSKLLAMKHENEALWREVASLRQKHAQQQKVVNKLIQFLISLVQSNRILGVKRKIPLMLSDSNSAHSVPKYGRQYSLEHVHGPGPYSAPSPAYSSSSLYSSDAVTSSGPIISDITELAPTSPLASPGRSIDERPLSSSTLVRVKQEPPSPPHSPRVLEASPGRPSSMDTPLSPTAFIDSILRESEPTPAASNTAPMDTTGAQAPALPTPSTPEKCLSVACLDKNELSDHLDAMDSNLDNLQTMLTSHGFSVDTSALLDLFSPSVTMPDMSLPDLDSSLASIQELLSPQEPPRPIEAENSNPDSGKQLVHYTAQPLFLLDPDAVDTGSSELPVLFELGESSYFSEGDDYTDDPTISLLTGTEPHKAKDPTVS
# Cytochrome P450 2C19 = Cytochrome P450 2C19 (Homo sapiens, UniProt P33261); assay: Cytochrome panel assay with activity outcomes. Panel member name: p450-cyp2c19 Compounds with AC50 equal or less than 10 uM are considered active; type: functional
# [6] = biological target: T5, Corticotropin-releasing factor receptor 2/Corticotropin-releasing factor-binding protein (Homo sapiens, UniProt P24387+Q13324); assay: activators of CRF receptor 2 with binding protein – uHTS hits, confirmation (AID 602473); type: functional; details: read-out: EC50_Mean
# T5 sequence (Q13324 whole entry): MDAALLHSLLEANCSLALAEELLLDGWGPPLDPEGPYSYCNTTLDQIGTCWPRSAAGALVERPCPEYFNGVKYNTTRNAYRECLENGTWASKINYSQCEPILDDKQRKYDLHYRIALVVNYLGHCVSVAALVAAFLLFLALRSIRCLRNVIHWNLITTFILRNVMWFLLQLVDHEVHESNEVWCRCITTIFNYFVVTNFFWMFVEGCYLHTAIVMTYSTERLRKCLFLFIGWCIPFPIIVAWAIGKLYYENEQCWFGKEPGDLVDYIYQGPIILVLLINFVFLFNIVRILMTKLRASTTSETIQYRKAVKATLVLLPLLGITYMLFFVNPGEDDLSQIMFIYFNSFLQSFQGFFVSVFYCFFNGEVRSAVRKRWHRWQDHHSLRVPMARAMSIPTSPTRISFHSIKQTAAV
# T5 sequence (P24387 whole entry): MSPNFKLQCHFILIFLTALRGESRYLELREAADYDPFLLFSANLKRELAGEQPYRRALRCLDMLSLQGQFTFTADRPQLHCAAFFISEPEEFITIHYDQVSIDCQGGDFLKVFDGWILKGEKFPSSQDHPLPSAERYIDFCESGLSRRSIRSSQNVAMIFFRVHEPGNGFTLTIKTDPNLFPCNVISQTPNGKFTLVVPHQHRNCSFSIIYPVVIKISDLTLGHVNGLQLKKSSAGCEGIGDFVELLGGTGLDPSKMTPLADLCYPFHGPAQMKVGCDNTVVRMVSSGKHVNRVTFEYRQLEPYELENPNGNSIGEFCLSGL
# Cytochrome P450 2C19, sequence (P33261 whole entry): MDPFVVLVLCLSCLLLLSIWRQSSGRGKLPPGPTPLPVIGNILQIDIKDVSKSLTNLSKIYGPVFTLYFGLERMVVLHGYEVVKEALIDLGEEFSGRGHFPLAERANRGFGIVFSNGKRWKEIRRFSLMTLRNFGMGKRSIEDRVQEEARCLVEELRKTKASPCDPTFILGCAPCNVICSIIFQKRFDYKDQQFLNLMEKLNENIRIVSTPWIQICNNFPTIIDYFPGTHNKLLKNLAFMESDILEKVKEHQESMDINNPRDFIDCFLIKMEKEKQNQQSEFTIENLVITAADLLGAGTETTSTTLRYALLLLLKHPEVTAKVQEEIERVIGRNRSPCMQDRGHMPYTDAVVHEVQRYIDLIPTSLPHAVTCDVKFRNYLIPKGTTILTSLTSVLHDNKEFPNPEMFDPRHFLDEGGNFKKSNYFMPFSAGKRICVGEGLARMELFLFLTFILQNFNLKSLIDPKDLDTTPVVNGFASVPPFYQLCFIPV
# Cytochrome P450 2C9, sequence (P11712 whole entry): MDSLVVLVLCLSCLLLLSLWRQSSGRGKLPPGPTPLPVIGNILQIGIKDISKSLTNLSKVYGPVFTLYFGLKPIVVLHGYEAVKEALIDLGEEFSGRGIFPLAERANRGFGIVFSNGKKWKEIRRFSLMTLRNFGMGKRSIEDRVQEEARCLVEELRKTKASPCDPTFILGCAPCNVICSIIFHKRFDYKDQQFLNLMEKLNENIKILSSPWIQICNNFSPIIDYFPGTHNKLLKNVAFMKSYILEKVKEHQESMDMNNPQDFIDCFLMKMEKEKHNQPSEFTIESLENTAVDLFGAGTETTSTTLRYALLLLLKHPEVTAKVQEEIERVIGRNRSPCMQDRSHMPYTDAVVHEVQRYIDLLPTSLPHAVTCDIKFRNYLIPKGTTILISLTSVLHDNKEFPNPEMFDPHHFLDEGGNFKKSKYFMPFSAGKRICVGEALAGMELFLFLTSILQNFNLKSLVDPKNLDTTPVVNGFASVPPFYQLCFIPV
smiles,measurement,setting,value
Cc1cc([N+](=O)[O-])nn1CC(=O)NNC(=S)Nc1ccc([N+](=O)[O-])cc1,EC50,[1],28.3 µM (active)
same,EC50,[2],5.47 µM (active)
O=C(CSc1nnc(CNc2ccccc2)o1)N1CCCc2ccccc21,AC50,Cytochrome P450 2C9,15.8 µM (inconclusive)
O=C(CC1Nc2ccccc2NC1=O)c1ccccc1 (centres undefined),EC50,[1],30.6 µM (active)
same,EC50,[2],103 µM (active)
CCCSc1nsc(NC(=O)Nc2ccc(F)cc2F)n1,AC50,[3],2.95 µM (active)
same,EC50,Streptococcus,34.2 µM (active)
same,AC50,INS1,6.57 µM (active)
same,EC50,[4],17.5 µM (active)
same,EC50,Streptokinase A,54.8 µM (inconclusive)
CC(C)(NC(=O)c1cc(Cl)c2ccccc2c1O)C(=O)O,EC50,[5],14.1 µM (active)
CCN1CCN(c2nc(C)c3c(n2)CCCC3=O)CC1,AC50,Cytochrome P450 2C19,inconclusive
CCCCNC(=O)CCC(=O)Nc1ccc2nc(N3CCOCC3)cc(C)c2c1,AC50,Cytochrome P450 2C9,17.8 µM (inconclusive)
CC(=O)OCC(=O)[C@@]1(O)[C@H](C)C[C@@H]2[C@H]3CCC4=CC(=O)C=C[C@]4(C)[C@]3(F)[C@@H](O)C[C@@]21C,AC50,Cytochrome P450 2C9,6.31 µM (inconclusive)
NCc1ccccc1.O=C(O)NCc1ccccc1,AC50,Cytochrome P450 2C9,3.98 µM (inconclusive)
same,AC50,Cytochrome P450 2C19; read-out: AC50,2.51 µM (inconclusive)
COC(=O)c1cccc(C(=O)Nc2ccc(C)cc2)n1,AC50,Cytochrome P450 2C9,6.31 µM (inconclusive)
CC(=O)Nc1ccccc1Sc1ccc2c3c(cccc13)C(=O)N(c1ccc(C)cc1)C2=O,EC50,[6],> 53 µM (inactive)
CCCOc1ccc(NC(N)=O)cc1OCCC,EC50,[5],> 195 µM (not active)
COc1cc(/N=C/c2c(O)oc3ccccc3c2=O)c(OC)cc1Cl,EC50,[1],> 300 µM (inconclusive)
same,EC50,[2],> 300 µM (inconclusive)
same,EC50,[6],> 53 µM (inactive)
Cc1cccc(N2C(=O)CS/C2=N\NC(=O)c2ccc(Br)cc2)c1C,EC50,[5],> 195 µM (not active)
O=C(/C=C\c1ccc2c(c1)OCO2)c1ccc(F)cc1,AC50,Cytochrome P450 2C9,1.58 µM (inconclusive)
CC1(c2ccc(Cl)cc2)NC(=O)N(CC(=O)N2CCc3ccccc32)C1=O (centres undefined),EC50,[6],14.1 µM (active)
CC(NC(=O)CSc1nc(=O)cc(N)n1CCc1ccccc1)c1ccccc1 (centres undefined),AC50,Cytochrome P450 2C19; read-out: AC50,14.1 µM (inconclusive)
CN1C(=O)/C(=C/c2ccc3c(c2)OCO3)N=C1c1ccccc1,EC50,[1],> 300 µM (not active)
same,EC50,[2],75.1 µM (inconclusive)
CCN(CC)C(=O)CSc1nnc(-c2cc3ccccc3cc2O)n1CC,AC50,Cytochrome P450 2C19; read-out: AC50,15.8 µM (inconclusive)
CCC1CC2CC(NC(C)=O)C1C2 (centres undefined),AC50,Cytochrome P450 2C9,7.08 µM (inconclusive)
same,AC50,Cytochrome P450 2C19; read-out: AC50,20 µM (inconclusive)
O=C1CCC(c2ccccc2)(c2ccccc2)CC1,AC50,Cytochrome P450 2C9,6.31 µM (inconclusive)
Cc1cc(S(=O)(=O)N2CCN=C2c2ccccc2)c(C)cc1Cl,EC50,[5],> 195 µM (not active)
Cc1cc(/C=C2\SC(=O)N(C)C2=O)c(C)n1-c1cccc(C(=O)O)c1,EC50,[1],> 300 µM (not active)
same,EC50,[2],> 300 µM (not active)
O=C(O)CSc1nc(-c2ccccc2)nc2c1oc1ccccc12,EC50,[5],> 195 µM (not active)
COC(=O)C1=CN(c2ccc(F)c(F)c2)C=C(C(=O)OC)C1c1ccc([N+](=O)[O-])cc1,EC50,[5],> 195 µM (not active)
COc1cccc(-c2nnc3sc(-c4ccc(C)cc4)nn23)c1,AC50,Cytochrome P450 2C19; read-out: AC50,6.31 µM (inconclusive)
CCOC(=O)C1=NOC2C3CC(C12)C1C(=O)N(CCc2ccc(OC)c(OC)c2)C(=O)C31 (centres undefined),EC50,[5],> 195 µM (not active)
O=C1C2CC=C(Cl)CC2C(=O)N1CCc1ccccc1 (centres undefined),EC50,[1],29.4 µM (active)
same,EC50,[2],20.6 µM (active)
Cc1ccc(NC(=O)CSc2nccc(=O)[nH]2)c(S(=O)(=O)N2CCOCC2)c1,EC50,[1],> 300 µM (not active)
same,EC50,[2],> 300 µM (not active)
CCOc1ccc(-n2c(N)c(C(=O)NCc3cccnc3)sc2=S)cc1,AC50,Cytochrome P450 2C9,3.55 µM (inconclusive)
same,AC50,Cytochrome P450 2C19; read-out: AC50,8.91 µM (inconclusive)
O=C(NC1CCCCC1)c1ccc(COCC(F)(F)F)o1,AC50,Cytochrome P450 2C9,15.8 µM (inconclusive)
CC(=N/O)/C(C)=N\NC(=O)c1ccccn1,EC50,[5],> 195 µM (not active)
COc1ccccc1NCC(=O)N/N=C/c1c(O)ccc2ccccc12,EC50,[1],> 300 µM (not active)
same,EC50,[2],> 150 µM (not active)
same,AC50,INS1,4.94 µM (active)
Cc1cc(C)nc(NC(=O)COc2cc(Cl)cc(Cl)c2)n1,EC50,[5],71.9 µM (active)
CCOC(=O)c1ccc(NC(=O)Oc2ccccc2)cc1,EC50,[5],> 195 µM (not active)
O=C(O)COc1ccc(/C=N/NC(=O)c2ccccc2Br)cc1,EC50,[5],> 195 µM (not active)
CCOC(=O)N1CCN(C(S)=Nc2ccc(C)cc2C)CC1,EC50,[5],> 195 µM (not active)
